We go through one compound from patent US20190018003A1, “TUMOR DISCRIMINATION METHOD, DIAGNOSTIC AGENT FOR TUMOR, AND SENSITIZER FOR TUMOR DIAGNOSIS” (TOTO LTD., priority 2017, published 2019).

Test [1] concerns WI-38 immortalized normal cells. Description: Co-culture in the same visual field, fluorescence of WI-38 cell region. It is filed as cell-based, human. Conditions: Example 11, WI-38 cell line, ALA 2 mmol/l, particles 0.001 w/v %. The source says: Co-culture pertaining to the present example for having the tumor cells and the immortalized normal cells exist in the same visual field will be described with reference to FIGS. 1A and 1B. For the co-culture, there was used CytoSelect™ 24-Well Cell Co-Culture System (manufactured by COSMO BIO). The T24 cell line was subcultured in an MEM medium (MEM, GlutaMAX™ supplement (Thermo Fisher Scientific), 10 v/v % FBS (Thermo Fisher Scientific)). The cultured cells which reached a logarithmic growth phase 3 days or 4 days later were peeled off with Trypsin/EDTA (Thermo Fisher Scientific) and, after the reaction was terminated in an MEM medium, centrifuged. The cell pellet obtained was suspended in an MEM medium. The cell suspension was subjected to measurement of cell density and inoculated onto a well at a density of 4.4×10^4 cells/0.225 ml/well, the well having an insert 2 of an 8 mm diameter disposed for preparing a cell-free region therein, and cultured for 2 days to form a monolayer in region 3 around the insert 2.
WI-38 cells were subcultured in an MEM medium. […]
Detection of fluorescence was performed in the same manner as in Example 4 by using an inverted fluorescence microscope (ECLIPSE Ti-E, Nikon). Images having a visual field of 3300 μm (width)×2200 μm (length) were obtained, and relative fluorescence intensities were calculated in the same manner as in Example 5.

Test [2] relates to UM-UC-3 urinary bladder cancer cells. Description: Fluorescence enhancement in UM-UC-3 cells detected by optical spectral detector (635 nm). It is filed as cell-based, human. Conditions: Example 17, ALA 2 mmol/l, particles 0.001 w/v %, 405 nm excitation, 635 nm detection, immediately after light irradiation. The text has this:
An aqueous ALA solution (50 mmol/l) was mixed into an E-MEM medium (ATCC-formulated Eagle's Minimum Essential Medium (ATCC)) to form a 2 mmol/l ALA solution. Further, aqueous solutions of light scattering particles (2) (ii) and 3 (ii) were mixed into an E-MEM medium to respectively form a light scattering particle solution having a concentration of 0.001 w/v %.
The medium of the UM-UC-3 cells on a 6-well plate, obtained in Example 3, was removed by an aspirator, and evaluation thereof was performed under the same conditions as in Example 5 and the solution was used for detection.
Detection was performed by using an optical spectral detector (USB 2000, a small sized fiber optical spectroscope, Ocean Optics) at room temperature in a dark place. […] Fluorescence generated therefrom was passed through a collimate lens disposed on the upper surface in a 50° direction, the collimate lens having a focal distance of 10.9 mm and a numerical aperture of 0.25 (F220SMA-A, Thorlabs) and, further, through an optical fiber (M59L01, Thorlabs) of φ=1 mm and a numerical aperture of 0.5, and was detected by the above optical spectral detector. […] And, by obtaining a difference in each measurement sample by subtracting the background intensity value from an intensity value of the measurement sample at a wavelength of 635 nm, the fluorescence detection intensity was calculated. […]

The compound `NCC(=O)CCC(=O)O` [fluorescent dye, 5-aminolevulinic acid] displayed a Relative fluorescence intensity in test [1] of 1.0. For the same compound, the “Relative detected fluorescence intensity” value in test [2] amounted to 1.0.
